The nature of data set [1]: Solubility screening of anthralin in oils, surfactants and co-surfactants. The class given is physicochemical. The following applies: read-out: drug solubility. As to the method: Excess drug was dissolved in 1 mL of the aforementioned oils, surfactant, and co-surfactant, and vortexed continuously for 48 h. The samples were centrifuged at 5000–7000 rpm for 15 min after which they were left to rest for 72 h.

Data set [2] relates to L929 (Mouse Connective Cell Line). Description: MTT assay (antipsoriatic activity). The class given is cell-based. Here is the method:
The L929 mouse connective tissue cell line was received from the National Center for Cell Sciences (NCCS), Pune, India and grown in DMEM media containing 10% fetal bovine serum. The cells were kept at 37 °C in a 5% CO2 incubator and seeded at a density of 1 × 10⁴ cells/mL in culture media for 24 h. To conduct the experiment, 70 μL of cell suspension (1 × 10^4 cells/well) were added to 100 μL of culture media on a 96-well tissue culture plate. Sample was added to wells at varying doses (25, 50, and 100 μg/mL), while control wells contained 0.2% DMSO in PBS with cell culture. All experiments were performed in triplicate to ensure reliability and reproducibility of the results. Control wells were utilized to evaluate cell viability and calculate the percentage of cells that survived after incubation. The cultures were incubated at 37 °C with 5% CO2 for 24 h in a CO2 incubator (Thermo Scientific BB150, Thermo Fisher Scientific Inc., Waltham, MA, USA). After incubation, the media were removed and 20 μL of MTT reagent (5 mg/mL in PBS) was added. The plates were incubated for a further 4 h at 37 °C to allow live cells to convert the MTT into formazan crystals, which were then viewed under a microscope. After removing the medium, 200 μL of DMSO was added and incubated at 37 °C for 10 min while protected from light with aluminum foil. Each sample’s absorbance was measured at 570 nm using an ELISA microplate reader (Benesphera E21, Avantor Performance Materials India Private Limited, Gurgoan, India), with triplicates tested for accuracy.
On the technique in general: Tetrazolium assays rely on reduction of a dye to a coloured formazan, in cell work by metabolically active cells.

Data set [3] can be described thus: pKa and percentage ionization (Henderson–Hasselbalch equation). The class given is physicochemical. From the text:
One study reported an average pH of 5.2 in psoriatic skin, compared to 5.6 in healthy skin [36]. […] The optimal pH range for topical application is 6–7 to balance efficacy and skin irritation.

The conditions of data set [4]: previously reported value ref 37; cited from earlier work.
Data set [5] deals with Propionibacterium. The data set can be described thus: Antibacterial activity, zone of inhibition. Format: cell-based. The following applies: 24 h incubation. Here is the method:
Nutrient Agar (NA-Himedia, HiMedia Laboratories Pvt. Ltd., Mumbai, India) was prepared by dissolving 28.0 g in 1000 mL distilled water, sterilized at 121 °C for 15 min, and poured into sterile Petri plates. Propionibacterium was used for microbial assays. A 24 h pure culture was prepared by suspending the microorganisms in saline solution, streaking onto culture slants, and incubating at 37 °C. Standard solutions, including Clindamycin (25 mg/mL), were prepared in sterile water and stored under refrigeration. Plates were prepared using the pour plate method by pouring melted agar into sterile plates and allowing its solidification before use.
A sterile, non-toxic cotton swab was dipped in the standardized inoculums (turbidity was adjusted to achieve confluent growth on the Petri plate), and the entire plate’s agar surface was streaked with the swab three times, turning the plate at a 60-degree angle between streaking. The streaked inoculums were then allowed to dry for 5–15 min with the lid on. Then, using sterile well punches, a bore was punched on the prepared plates (8 mm). With the assistance of a sterile micropipette, a 10 μL dosage of produced microemulsion and standard medication Clindamycin were injected into each bore in an aseptic environment. Plates were maintained at room temperature for 30 min before being incubated for 24 h at 37 °C. The diameter of the inhibitory zones was measured using a scale in mm.
The antibacterial potential of test compounds was assessed using the mean diameter of the zone of inhibition around the disc in millimeters. The zones of inhibition of the studied microorganisms by the substances were determined on a millimeter scale.

The structures appear in SMILES notation. Values after ≈ are worked out from the molar mass of the structure shown. Read-outs that look alike come from different tables or passages of the source.

For `O=C1c2c(O)cccc2Cc2cccc(O)c21` [Anthralin], the solubility (in general, how much of the substance goes into solution per volume) at 48 h in data set [1] (PEG 400, 27 °C, organic solvent or mixture, thermodynamic from solid, in PEG 400, room temperature (27 ± 1 °C)) is 14.1 mg/mL (≈ 62.2 mM); in data set [1] (Span 20, thermodynamic from solid, in Span 20), 4.23 mg/mL (≈ 18.7 mM); in data set [1] (Transcutol-P, organic solvent or mixture, thermodynamic from solid, in Transcutol-P), 15.6 mg/mL (≈ 68.8 mM); in data set [1] (Tween 20, thermodynamic from solid, in Tween 20), 11.6 mg/mL (≈ 51.2 mM); in data set [1] (Tween 80, 27 °C, thermodynamic from solid, in Tween 80, room temperature (27 ± 1 °C)) it was 56 mg/mL (≈ 248 mM); in data set [1] (castor oil, oil or lipid, thermodynamic from solid, in castor oil) it was 23.9 mg/mL (≈ 106 mM). The solubility at 48 h was determined as 9.23 mg/mL (≈ 40.8 mM) in data set [1] (ethanol, organic solvent or mixture, thermodynamic from solid, in ethanol); 44.2 mg/mL (≈ 196 mM) in data set [1] (oleic acid, 27 °C, oil or lipid, thermodynamic from solid, in oleic acid, room temperature (27 ± 1 °C)); 28.2 mg/mL (≈ 125 mM) in data set [1] (olive oil, oil or lipid, thermodynamic from solid, in olive oil). In data set [2] (L929, 100 µg/mL, 24 h), the Inhibition % is reported as 60.345%. Also, the inhibition (in general, the relative decrease from the control value, in per cent) at 25 µg/mL in data set [2] (Mus musculus, L929, 24 h, L929, 25 µg/mL, 24 h) was 47.9%. Moreover, 50 µg/mL produced 53% inhibition in data set [2] (Mus musculus, L929, 24 h, L929, 50 µg/mL, 24 h). Also, testing at 100 µg/mL in data set [2] (Mus musculus, L929, 24 h, L929, 100 µg/mL, 24 h) gave an inhibition of 60.3%. In data set [2] (Mus musculus, L929, 25 µg/mL, 24 h), the viability (in general, a read-out of living cells in per cent, often relative to untreated cells) at 25 µg/mL amounted to 52.1%. In data set [2] (Mus musculus, L929, 50 µg/mL, 24 h), this molecule yielded a viability at 50 µg/mL of 47%. The molecule further had a viability at 100 µg/mL in data set [2] (Mus musculus, L929, 100 µg/mL, 24 h) of 39.7%. In data set [2] (Mus musculus, L929, from linear regression of % inhibition vs. concentration), inhibition was half-maximal at 36.2 µg/mL (≈ 0.16 mM) (IC50). Besides, the percentage ionization is 0.01% in data set [3] (pH 5.2 (psoriatic skin)) and 0.03% in data set [3] (pH 5.6 (healthy skin)). Besides, in data set [4], the pKa – broadly, the negative logarithm of the acid dissociation constant – is 9.06.

For `O=c1[nH]cc(F)c(=O)[nH]1` [Batch 5-FU, 5-flurouracil], the “Cell Viability %” value in data set [2] (L929, 25 µg/mL, 24 h) was 33.90%; in data set [2] (L929, 50 µg/mL, 24 h) it was 29.87%; in data set [2] (L929, 100 µg/mL, 24 h) it was 21.00%. The Inhibition % in data set [2] (L929, 25 µg/mL, 24 h) is recorded as 66.10%; in data set [2] (L929, 50 µg/mL, 24 h), 70.13%; in data set [2] (L929, 100 µg/mL, 24 h), 79.00%.

On to `CCC[C@@H]1C[C@@H](C(=O)N[C@@H]([C@H]2O[C@H](SC)[C@H](O)[C@@H](O)[C@H]2O)[C@H](C)Cl)N(C)C1` [Clindamycin], for which the zone of inhibition (in general, the extent of the growth-free halo in a diffusion test) at 25 µg/mL in data set [5] (25 μg/mL) was 11.3 ± 1.15 mm. In data set [5] (50 μg/mL), this molecule gave a zone of inhibition at 50 µg/mL of 13.7 ± 1.15 mm. Moreover, in data set [5] (100 μg/mL), the zone of inhibition at 100 µg/mL amounted to 20.7 ± 1.15 mm.
